Assay results from patent US20240173302A1, “TREATMENT OF INFLAMMATORY DISEASES” (DIMERIX BIOSCIENCE PTY LTD, priority 2021, published 2024).
Entries after “also recorded” stand apart in the source; their conditions may differ.

Assays:
[1] = molecular target: T1, ETAR and CCR2 heteromer (Homo sapiens, UniProt P25101+P41597); experiment: Receptor-HIT BRET β-arrestin recruitment assay, ETAR/Rluc8+Barr2/Venus+CCR2; type: cell-based; settings: HEK293FT cells; for agonist-induced β-arrestin recruitment to ETAR (ligand-induced BRET): no antagonist; for hyperactivation of β-arrestin recruitment to ETAR (ligand-induced BRET): both CCL2/MCP-1 and ET-1 present
T1 construct: expressed in transfected cells; host or cells: HEK293FT
T1 sequence (P25101 21-427): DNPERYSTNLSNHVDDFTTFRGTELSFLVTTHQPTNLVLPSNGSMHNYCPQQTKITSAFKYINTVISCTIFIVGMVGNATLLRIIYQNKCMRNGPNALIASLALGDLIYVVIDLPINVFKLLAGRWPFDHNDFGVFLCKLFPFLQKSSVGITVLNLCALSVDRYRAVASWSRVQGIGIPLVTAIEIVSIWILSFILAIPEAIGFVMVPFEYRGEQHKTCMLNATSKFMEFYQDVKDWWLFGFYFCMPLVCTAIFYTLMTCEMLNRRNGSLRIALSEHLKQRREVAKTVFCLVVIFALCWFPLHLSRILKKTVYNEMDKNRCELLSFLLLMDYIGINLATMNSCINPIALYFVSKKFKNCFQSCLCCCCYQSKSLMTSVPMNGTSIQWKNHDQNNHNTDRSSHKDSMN
T1 sequence (P41597 whole entry): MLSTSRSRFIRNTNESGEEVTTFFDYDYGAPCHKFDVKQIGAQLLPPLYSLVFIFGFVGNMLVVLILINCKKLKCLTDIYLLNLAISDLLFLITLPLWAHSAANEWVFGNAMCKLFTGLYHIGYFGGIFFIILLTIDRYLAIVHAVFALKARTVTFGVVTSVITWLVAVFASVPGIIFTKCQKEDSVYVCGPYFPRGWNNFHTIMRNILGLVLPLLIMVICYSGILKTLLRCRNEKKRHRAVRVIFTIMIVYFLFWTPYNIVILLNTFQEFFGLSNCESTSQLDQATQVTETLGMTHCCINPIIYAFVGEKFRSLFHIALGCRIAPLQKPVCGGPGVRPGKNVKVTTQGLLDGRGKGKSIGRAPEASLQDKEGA
Description: HEK293FT cells were seeded in 6-well plates at a density of approximately 700,000 cells/well and maintained at 37° C., 5% CO2 in Complete Media (DMEM containing 0.3 mg/ml glutamine, 100 IU/ml penicillin and 100 μg/ml streptomycin (Thermo Fisher)) supplemented with 10% fetal calf serum (FCS; Bovogen). Transient transfections were carried out 24 h after seeding using FuGene6 (Promega) according to manufacturer instructions. 24 h post-transfection, cells were washed with PBS, detached using 0.05% trypsin/0.53 mM EDTA, resuspended in phenol red free Complete Media containing 5% FCS and added to a poly-L-lysine-coated white 96-well microplate (Greiner Bio-One). 48 h post-transfection, bioluminescence resonance energy transfer (BRET) assays were carried out following pre-incubation of cells with EnduRen™ (Promega) at a final concentration of 30 μM, at 37° ° C., 5% CO2 for 2 h. BRET measurements were taken at 37° C. using the CLARIOstar (BMG Labtech). Filtered light emissions were sequentially measured for 1 s in each of the ‘donor wavelength window’ (410-490 nm) and ‘acceptor wavelength window’ (520-620 nm).
For antagonist assays, cells were pre-incubated in EnduRen for 2 h. The antagonists (10 μM) were added and the assay was read for 30 min. Subsequently, the agonists (CXCL8 10 nM, AngII 100 nM) were added and the measurements continued for another 1 h.
The BRET signal observed between interacting proteins is normalized by subtracting the background BRET ratio. This can be done in one of two ways (see Pfleger et al. (2006) Cell Signal 18:1664-1670; Pfleger et al. (2006) Nat Protoc 1:336-344): 1) the ratio of the 520-550 nm emission over the 460-490 nm emission for a cell sample containing only the donor construct is subtracted from the same ratio for a sample containing the interacting acceptor and donor fusion proteins; 2) the ratio of the 520-550 nm emission over the 460-490 nm emission for a cell sample treated with vehicle is subtracted from the same ratio for a second aliquot of the same cell sample treated with ligand. In the following examples, the second calculation will be used and the signal is described as ‘ligand-induced BRET’.
The Receptor-Heteromer Investigation Technology (Receptor-HIT) is an assay configuration that provides insights into receptor complexes (Ayoub et al. (2015) PLOS One 10(3):e0119803). It is also known as GPCR-HIT when assessing GPCRs. It is an assay configuration whereby one receptor (eg. CCR2) is labelled with one component (eg. Renilla luciferase variant Rluc8) of a proximity-based reporter system (eg. BRET), the complementary component of which (eg. yellow fluorescent protein Venus) is fused to a receptor interacting partner (eg. β-arrestin 2). Treatment with a ligand (eg. AngII) selective for the receptor untagged with respect to the BRET assay (eg. hemagglutinin epitope-tagged AT1R; HA-AT1R) results in modulation of the proximity of the BRET-tagged receptor and the interacting partner, resulting in a change in BRET signal that is indicative of functional interaction between the two receptors.

[2] = test system: CCR2 in the presence of unlabelled ETAR; experiment: Receptor-HIT BRET β-arrestin recruitment assay, CCR2/Rluc8+Barr2/Venus+HA-ETAR; type: cell-based, human; settings: HEK293FT cells

Compound	agonist-induced β-arrestin recruitment to ETAR (ligand-induced BRET) [1]	agonist-induced β-arrestin recruitment to ETAR (ligand-induced BRET) ([1]; listed as CCL2)	agonist-induced β-arrestin recruitment to ETAR (ligand-induced BRET) ([1]; listed as CCL2/MCP1)	agonist-induced β-arrestin recruitment to CCR2 (ligand-induced BRET) ([2]; no antagonist)	β-arrestin recruitment to ETAR stimulated with ET-1 (ligand-induced BRET) ([1]; ET-1 alone, antagonists 10 μM)	hyperactivation of β-arrestin recruitment to ETAR (ligand-induced BRET) ([1]; antagonists 10 μM)	hyperactivation of β-arrestin recruitment to ETAR (ligand-induced BRET) ([1]; antagonists 10 μM, listed as sparsentan)	increased recruitment of β-arrestin to CCR2 (ligand-induced BRET) ([2]; CCL2/MCP-1 and ET-1 present, antagonists 10 μM)
monocyte chemoattractant protein-1 [CCL2/MCP-1]	β-arrestin is recruited to ETAR	β-arrestin recruitment to ETAR occurs	β-arrestin is recruited to ETAR	β-arrestin is recruited to CCR2	–	–	–	–
endothelin-1 [ET-1]	β-arrestin is recruited to ETAR; also recorded: recruit β-arrestin at a low magnitude	–	–	–	–	–	–	–
CCCCC1=NC2(CCCC2)C(=O)N1Cc1ccc(-c2ccccc2S(=O)(=O)Nc2noc(C)c2C)c(COCC)c1 [Sparsentan, 2-[4-[(2-butyl-4-oxo-1,3-diazaspiro[4.4]non-1-en-3-yl)methyl]-2-(ethoxymethyl)phenyl]-N-(4,5-dimethyl-1,2-oxazol-3-yl)benzenesulfonamide]	–	–	–	–	inhibits this signalling independent of CCR2 activation	abrogate the hyperactivation when both CCL2/CMP-1 and ET-1 ligands are present but not cease recruitment of β-arrestin to ETAR	abrogated	increased recruitment of β-arrestin is not observed
